In ChEMBL document CHEMBL5291721, “A preclinical secondary pharmacology resource illuminates target-adverse drug reaction associations of marketed drugs” (Nat Commun, 2023):

Tests used:
Adenosine receptor A2a = Adenosine receptor A2a (Homo sapiens, UniProt P29274)
[1] = biological target: T1, Cholecystokinin receptor type A (Homo sapiens, UniProt P32238)
T1 sequence (P32238 whole entry): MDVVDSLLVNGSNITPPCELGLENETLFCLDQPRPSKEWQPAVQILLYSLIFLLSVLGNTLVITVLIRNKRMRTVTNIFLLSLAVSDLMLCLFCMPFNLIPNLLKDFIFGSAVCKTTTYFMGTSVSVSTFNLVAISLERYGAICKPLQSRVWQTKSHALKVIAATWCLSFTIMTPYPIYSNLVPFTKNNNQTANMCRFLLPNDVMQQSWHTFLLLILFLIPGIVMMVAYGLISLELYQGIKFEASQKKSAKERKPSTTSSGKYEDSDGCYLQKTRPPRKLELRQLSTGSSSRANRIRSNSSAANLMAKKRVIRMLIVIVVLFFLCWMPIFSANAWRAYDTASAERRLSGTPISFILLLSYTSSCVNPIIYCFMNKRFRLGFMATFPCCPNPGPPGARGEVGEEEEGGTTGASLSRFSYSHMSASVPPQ

[2] = biological target: 5-hydroxytryptamine receptor 2B (Homo sapiens, UniProt P41595); type: functional, cell-based
Chain of 5-hydroxytryptamine receptor 2B (P41595 whole entry): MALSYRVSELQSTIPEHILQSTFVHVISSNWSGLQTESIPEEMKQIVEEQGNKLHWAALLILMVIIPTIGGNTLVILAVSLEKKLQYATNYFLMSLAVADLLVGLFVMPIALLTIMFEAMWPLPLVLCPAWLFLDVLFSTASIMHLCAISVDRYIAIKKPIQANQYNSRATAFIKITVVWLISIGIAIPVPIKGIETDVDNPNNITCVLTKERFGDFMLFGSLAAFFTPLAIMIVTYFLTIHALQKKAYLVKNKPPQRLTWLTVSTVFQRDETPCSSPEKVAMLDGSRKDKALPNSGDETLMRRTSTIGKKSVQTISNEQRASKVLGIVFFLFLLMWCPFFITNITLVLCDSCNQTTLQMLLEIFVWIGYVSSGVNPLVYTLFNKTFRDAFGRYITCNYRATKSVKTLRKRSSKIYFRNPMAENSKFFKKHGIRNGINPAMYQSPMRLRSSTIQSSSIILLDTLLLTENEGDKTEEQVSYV

Progesterone receptor = biological target: T2, Progesterone receptor (Homo sapiens, UniProt P06401); type: functional
T2 sequence (P06401 whole entry): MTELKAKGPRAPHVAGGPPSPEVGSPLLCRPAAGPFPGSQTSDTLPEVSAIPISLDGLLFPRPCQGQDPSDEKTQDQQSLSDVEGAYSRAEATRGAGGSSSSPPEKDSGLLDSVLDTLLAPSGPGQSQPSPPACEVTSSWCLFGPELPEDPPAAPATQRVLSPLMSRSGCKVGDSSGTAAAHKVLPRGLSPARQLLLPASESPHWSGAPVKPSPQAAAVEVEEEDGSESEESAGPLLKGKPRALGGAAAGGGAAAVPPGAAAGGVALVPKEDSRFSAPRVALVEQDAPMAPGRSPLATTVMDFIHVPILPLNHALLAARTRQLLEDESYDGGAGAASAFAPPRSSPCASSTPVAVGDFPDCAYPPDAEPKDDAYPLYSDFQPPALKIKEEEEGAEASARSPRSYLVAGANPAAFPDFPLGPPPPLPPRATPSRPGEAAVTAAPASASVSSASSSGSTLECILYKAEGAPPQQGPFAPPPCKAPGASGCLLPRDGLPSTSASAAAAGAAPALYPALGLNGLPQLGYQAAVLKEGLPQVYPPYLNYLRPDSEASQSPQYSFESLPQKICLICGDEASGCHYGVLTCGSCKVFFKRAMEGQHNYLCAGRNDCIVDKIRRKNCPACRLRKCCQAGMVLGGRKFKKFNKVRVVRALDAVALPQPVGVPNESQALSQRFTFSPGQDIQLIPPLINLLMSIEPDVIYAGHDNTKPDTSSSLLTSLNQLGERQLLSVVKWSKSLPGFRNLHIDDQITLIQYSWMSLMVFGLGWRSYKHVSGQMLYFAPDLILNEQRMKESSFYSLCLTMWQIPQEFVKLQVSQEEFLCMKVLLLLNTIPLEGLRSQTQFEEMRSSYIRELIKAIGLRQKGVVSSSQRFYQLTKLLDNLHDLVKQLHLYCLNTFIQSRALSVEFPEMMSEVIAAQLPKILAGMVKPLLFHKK

[3] = biological target: Sodium-dependent noradrenaline transporter (Homo sapiens, UniProt P23975)
Chain of Sodium-dependent noradrenaline transporter (P23975 whole entry): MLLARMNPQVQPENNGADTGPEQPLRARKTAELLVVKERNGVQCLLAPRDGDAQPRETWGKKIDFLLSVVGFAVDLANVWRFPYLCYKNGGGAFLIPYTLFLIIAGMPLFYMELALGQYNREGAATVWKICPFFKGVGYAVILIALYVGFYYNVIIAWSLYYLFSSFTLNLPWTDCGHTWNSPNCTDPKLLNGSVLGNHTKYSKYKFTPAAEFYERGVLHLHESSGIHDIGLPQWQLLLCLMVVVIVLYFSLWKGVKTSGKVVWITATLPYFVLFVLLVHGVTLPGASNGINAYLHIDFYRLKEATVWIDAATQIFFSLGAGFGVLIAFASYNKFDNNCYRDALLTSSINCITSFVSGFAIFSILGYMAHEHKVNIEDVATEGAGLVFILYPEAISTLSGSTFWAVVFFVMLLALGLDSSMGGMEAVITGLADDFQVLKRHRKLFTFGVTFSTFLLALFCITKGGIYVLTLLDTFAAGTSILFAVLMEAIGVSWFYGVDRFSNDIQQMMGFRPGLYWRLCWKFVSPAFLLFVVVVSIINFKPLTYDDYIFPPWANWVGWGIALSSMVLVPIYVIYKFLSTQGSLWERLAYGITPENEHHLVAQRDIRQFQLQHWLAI

[4] = biological target: T3, Amine oxidase [flavin-containing] A (Homo sapiens, UniProt P21397); type: functional
T3 sequence (P21397 whole entry): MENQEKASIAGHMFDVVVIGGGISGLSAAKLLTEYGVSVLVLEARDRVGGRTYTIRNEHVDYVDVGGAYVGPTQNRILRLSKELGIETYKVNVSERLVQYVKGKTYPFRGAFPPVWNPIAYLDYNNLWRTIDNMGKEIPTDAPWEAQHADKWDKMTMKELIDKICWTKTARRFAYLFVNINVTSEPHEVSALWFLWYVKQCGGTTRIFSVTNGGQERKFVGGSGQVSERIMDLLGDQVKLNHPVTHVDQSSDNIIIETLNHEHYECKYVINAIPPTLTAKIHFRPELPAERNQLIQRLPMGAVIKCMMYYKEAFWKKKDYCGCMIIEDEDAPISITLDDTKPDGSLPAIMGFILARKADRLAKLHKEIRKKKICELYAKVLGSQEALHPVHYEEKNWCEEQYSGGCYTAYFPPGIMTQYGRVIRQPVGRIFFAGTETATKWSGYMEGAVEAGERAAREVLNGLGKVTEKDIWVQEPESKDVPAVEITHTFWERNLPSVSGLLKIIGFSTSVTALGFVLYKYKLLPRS

D(3) dopamine receptor = D(3) dopamine receptor (Homo sapiens, UniProt P35462)
Chain of D(3) dopamine receptor (P35462 whole entry): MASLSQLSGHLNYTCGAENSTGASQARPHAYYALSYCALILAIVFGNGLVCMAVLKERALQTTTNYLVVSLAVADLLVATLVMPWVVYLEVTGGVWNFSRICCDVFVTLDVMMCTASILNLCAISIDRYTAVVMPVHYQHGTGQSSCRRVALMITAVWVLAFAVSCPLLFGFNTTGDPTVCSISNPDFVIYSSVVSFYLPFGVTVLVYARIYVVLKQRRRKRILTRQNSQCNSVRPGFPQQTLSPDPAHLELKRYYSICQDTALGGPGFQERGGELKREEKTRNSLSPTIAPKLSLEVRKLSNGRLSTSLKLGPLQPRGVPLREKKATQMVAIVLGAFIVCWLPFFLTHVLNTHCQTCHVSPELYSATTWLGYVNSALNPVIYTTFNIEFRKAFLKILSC

Histamine H3 receptor = Histamine H3 receptor (Homo sapiens, UniProt Q9Y5N1)
Chain of Histamine H3 receptor (Q9Y5N1 whole entry): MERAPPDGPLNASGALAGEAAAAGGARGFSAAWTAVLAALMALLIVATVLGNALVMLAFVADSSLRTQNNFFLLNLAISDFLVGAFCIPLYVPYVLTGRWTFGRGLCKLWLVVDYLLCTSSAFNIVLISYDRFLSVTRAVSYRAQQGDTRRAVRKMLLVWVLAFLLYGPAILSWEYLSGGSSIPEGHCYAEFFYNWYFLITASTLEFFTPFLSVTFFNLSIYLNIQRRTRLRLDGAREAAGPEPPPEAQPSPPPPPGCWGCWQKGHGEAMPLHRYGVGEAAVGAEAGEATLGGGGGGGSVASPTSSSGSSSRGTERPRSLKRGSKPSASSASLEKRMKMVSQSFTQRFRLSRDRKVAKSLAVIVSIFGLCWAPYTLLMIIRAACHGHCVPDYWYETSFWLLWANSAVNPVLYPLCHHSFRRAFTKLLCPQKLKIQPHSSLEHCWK

[5] = biological target: Glutamate receptor ionotropic, NMDA 1 (Rattus norvegicus, UniProt P35439)
Histamine H2 receptor = Histamine H2 receptor (Homo sapiens, UniProt P25021); type: functional, cell-based
Chain of Histamine H2 receptor (P25021 whole entry): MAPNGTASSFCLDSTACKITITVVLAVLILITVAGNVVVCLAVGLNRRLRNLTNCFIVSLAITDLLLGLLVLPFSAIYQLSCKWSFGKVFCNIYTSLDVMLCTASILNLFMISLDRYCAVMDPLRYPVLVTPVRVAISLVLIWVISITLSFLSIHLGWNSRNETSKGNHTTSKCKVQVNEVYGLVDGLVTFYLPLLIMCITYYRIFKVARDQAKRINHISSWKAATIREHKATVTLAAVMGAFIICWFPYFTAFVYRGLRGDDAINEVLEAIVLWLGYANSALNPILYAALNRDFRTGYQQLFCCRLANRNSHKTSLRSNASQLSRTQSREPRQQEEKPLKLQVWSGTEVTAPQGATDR

[6] = biological target: T4, Neuropeptide Y receptor type 1 (Homo sapiens, UniProt P25929)
T4 sequence (P25929 whole entry): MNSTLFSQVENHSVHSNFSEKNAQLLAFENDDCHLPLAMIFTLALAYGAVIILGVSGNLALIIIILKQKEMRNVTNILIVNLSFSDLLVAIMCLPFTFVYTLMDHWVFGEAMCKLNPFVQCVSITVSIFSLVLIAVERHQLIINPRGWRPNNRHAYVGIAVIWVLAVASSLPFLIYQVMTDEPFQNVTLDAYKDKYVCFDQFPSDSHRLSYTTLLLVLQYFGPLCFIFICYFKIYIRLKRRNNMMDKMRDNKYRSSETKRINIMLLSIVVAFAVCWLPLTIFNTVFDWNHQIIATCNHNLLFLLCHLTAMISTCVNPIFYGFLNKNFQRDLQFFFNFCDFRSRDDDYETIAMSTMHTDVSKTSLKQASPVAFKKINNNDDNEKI

[7] = biological target: Beta-2 adrenergic receptor (Homo sapiens, UniProt P07550)
Chain of Beta-2 adrenergic receptor (P07550 whole entry): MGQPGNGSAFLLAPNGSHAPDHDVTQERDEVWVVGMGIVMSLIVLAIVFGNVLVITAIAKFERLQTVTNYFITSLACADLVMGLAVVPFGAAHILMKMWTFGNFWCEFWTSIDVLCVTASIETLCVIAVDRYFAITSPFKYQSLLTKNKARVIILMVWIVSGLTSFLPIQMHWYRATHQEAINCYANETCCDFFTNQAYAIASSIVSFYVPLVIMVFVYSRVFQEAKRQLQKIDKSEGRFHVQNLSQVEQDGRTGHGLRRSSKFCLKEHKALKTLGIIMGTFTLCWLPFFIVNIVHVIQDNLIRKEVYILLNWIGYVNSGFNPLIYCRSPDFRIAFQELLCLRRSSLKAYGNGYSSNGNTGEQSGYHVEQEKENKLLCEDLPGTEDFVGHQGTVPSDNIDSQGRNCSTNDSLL
Also: assay procedure not described here.

Chain of Adenosine receptor A2a (P29274 whole entry): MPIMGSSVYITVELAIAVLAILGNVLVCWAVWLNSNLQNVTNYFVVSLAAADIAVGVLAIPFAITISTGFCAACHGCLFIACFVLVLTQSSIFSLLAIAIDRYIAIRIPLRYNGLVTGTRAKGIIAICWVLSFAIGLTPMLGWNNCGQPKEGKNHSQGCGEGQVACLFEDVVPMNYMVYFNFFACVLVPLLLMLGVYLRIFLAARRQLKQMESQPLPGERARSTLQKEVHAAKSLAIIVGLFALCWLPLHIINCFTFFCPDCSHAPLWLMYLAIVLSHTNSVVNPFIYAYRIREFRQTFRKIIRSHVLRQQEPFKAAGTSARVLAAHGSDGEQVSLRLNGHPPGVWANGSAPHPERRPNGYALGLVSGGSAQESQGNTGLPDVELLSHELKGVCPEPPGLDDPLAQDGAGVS

Compound	AC50 (Adenosine receptor A2a) [µM]	AC50 [1] [µM]	AC50 [2] [µM]	AC50 (Progesterone receptor) [µM]	AC50 [3] [µM]	AC50 [4] [µM]	AC50 (D(3) dopamine receptor) [µM]	AC50 (Histamine H3 receptor) [µM]	AC50 [5] [µM]	AC50 (Histamine H2 receptor) [µM]	AC50 [6] [µM]	AC50 [7] [µM]
CCOc1cc([C@@H](CS(C)(=O)=O)N2C(=O)c3cccc(NC(C)=O)c3C2=O)ccc1OC	> 30	> 30	> 30	> 30	> 30	> 30	> 30	> 30				
CC1(C)S[C@@H]2[C@H](NC(=O)C(C(=O)O)c3ccccc3)C(=O)N2[C@H]1C(=O)O (some centres undefined) [CARBENICILLIN]	> 30	> 30	> 30	> 30	> 30	> 30	> 30	> 30	> 30	> 30	> 30	
CC(C)(O/N=C(\C(=O)N[C@@H]1C(=O)N2C(C(=O)[O-])=C(C[n+]3ccccc3)CS[C@H]12)c1csc(N)n1)C(=O)O [CEFTAZIDIME]	> 300	> 300	> 300		> 300	> 300	> 300	> 300	> 30	> 30	> 30	
CC(C)NC(=N)NC(=N)Nc1ccc(Cl)c(Cl)c1 [CHLORPROGUANIL]			> 30			> 30	> 30		> 30	> 30		
CCCNC(=O)NS(=O)(=O)c1ccc(Cl)cc1 [CHLORPROPAMIDE]	> 30	> 30	> 10		> 30	> 10	> 30	> 10	> 10	> 10	> 30	> 10
C[N+](C)(C)CCOP(=O)(O)OP(=O)([O-])OC[C@H]1O[C@@H](n2ccc(N)nc2=O)[C@H](O)[C@@H]1O [CITICOLINE]			> 30			> 30	> 30		> 30	> 30		
Clc1ccc(Cn2c(CN3CCCC3)nc3ccccc32)cc1 [CLEMIZOLE]	> 30	> 30	0.67		> 30	> 30	> 30	> 30				
CCC(=O)O[C@]1(C(=O)CCl)[C@@H](C)C[C@H]2[C@@H]3CCC4=CC(=O)C=C[C@]4(C)[C@@]3(F)[C@@H](O)C[C@@]21C [CLOBETASOL PROPIONATE]	> 30	> 30	> 30		> 30	> 30	> 30	> 30	> 30	> 30	> 10	
CC(C)Cc1ccc([C@H](C)C(=O)O)cc1 [DEXIBUPROFEN]	> 30	> 30	> 30	> 30	> 30	> 30	> 30	> 30				
CNC[C@H](O)c1ccc(O)c(O)c1 [EPINEPHRINE]	> 30	> 30	> 30	> 30	> 30	> 30	8.4	> 30				
Cc1onc(-c2c(F)cccc2Cl)c1C(=O)N[C@@H]1C(=O)N2[C@@H]1SC(C)(C)[C@@H]2C(=O)O [FLOXACILLIN]	> 30	> 30	> 30	> 30	> 30	> 30	> 30	> 30				
CC[C@H](C)C(=O)O[C@H]1C[C@@H](C)C=C2C=C[C@H](C)[C@H](CC[C@@H]3C[C@@H](O)CC(=O)O3)[C@H]21 [LOVASTATIN]	> 30	> 30	> 10		> 10	> 10	> 10	> 10	> 10	> 10	> 30	> 10
CC[C@@H](CO)NC(=O)[C@@H]1C=C2c3cccc4c3c(cn4C)C[C@H]2N(C)C1 [METHYSERGIDE]	> 30	> 30			> 30	> 10	0.42	> 10	> 10	2.78	> 30	> 10
CN1Cc2c(N)cccc2C(c2ccccc2)C1 (centres undefined) [NOMIFENSINE]	> 30	> 30	> 30	> 30		> 30	> 30	> 30	> 30	> 30	> 30	
CC(CN1c2ccccc2Sc2ccccc21)N(C)C (centres undefined) [PROMETHAZINE]	> 30	> 30	> 10		0.81	> 10	0.28	> 10	> 10	> 10	> 30	> 10
S=P(N1CC1)(N1CC1)N1CC1 [THIOTEPA]	> 30	> 30	> 30	> 30		> 30	9.9	> 30				
CC(C)C[C@H](NC(=O)[C@@H](O)[C@H](N)Cc1ccccc1)C(=O)O [UBENIMEX]	> 30		> 30	> 30	> 30	> 30	> 30		> 30	> 30		
CC(C)[C@H](N)C(=O)OCCOCn1cnc2c(=O)[nH]c(N)nc21 [VALACYCLOVIR]	> 30	> 30	> 10		> 10	> 10	> 10	> 10	> 10	> 10	> 30	> 10
